From US12660819B2, “Herbicidal derivatives” (SYNGENTA CROP PROTECTION AG, priority 2020, dated 2026)

Legend:
Assay type in all cases: in vivo
Setaria faberi (SETFA) [1] = experiment: Pre-emergence Test (glasshouse, percentage damage to the plant); settings: 1000 g/ha unless otherwise stated, five-point scale
[2] = system: Abutilon theophrasti (ABUTH); experiment: as above; settings: 1000 g/ha unless otherwise stated, five-point scale
Zea mays (ZEAMX) [3] = experiment: as above; settings: 1000 g/ha unless otherwise stated, five-point scale
[4] = system: Abutilon theophrasti (ABUTH); experiment: Post-emergence Test (glasshouse, percentage damage to the plant); settings: post-emergence spray, 1000 g/ha unless otherwise stated, evaluated after 13 days
Outline: (§1)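 Compound formulated in 50:50 acetone/water with 0.5% Tween 20 was diluted to an aqueous spray and applied at 1000 g/ha, unless otherwise stated, onto sown pots. Evaluation after 13 days gave percentage damage, banded into a 1–5 score.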

Zea mays (ZEAMX) [5] = experiment: as above; settings: post-emergence spray, 1000 g/ha unless otherwise stated, evaluated after 13 days
Outline: (§2)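 Spray treatment of sown glasshouse pots at 1000 g/ha (default rate), vehicle acetone/water 50:50 plus 0.5% Tween 20. Read-out: percentage damage after 13 days, converted to a score where 5 denotes 81-100% and 1 denotes 0-20%.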

Setaria faberi (SETFA) [6] = experiment: as above; settings: post-emergence spray, 1000 g/ha unless otherwise stated, evaluated after 13 days
Outline: as §2

[7] = system: Echinochloa crus-galli (ECHCG); experiment: as above; settings: post-emergence spray, 1000 g/ha unless otherwise stated, evaluated after 13 days
Outline: as §1

[8] = system: Ipomoea hederacea (IPOHE); experiment: as above; settings: post-emergence spray, 1000 g/ha unless otherwise stated, evaluated after 13 days
Outline: as §2

[9] = system: Amaranthus retoflexus (AMARE); experiment: as above; settings: post-emergence spray, 1000 g/ha unless otherwise stated, evaluated after 13 days
Outline: as §1

[10] = system: Echinochloa crus-galli (ECHCG); experiment: Pre-emergence Test (glasshouse, percentage damage to the plant); settings: 1000 g/ha unless otherwise stated, five-point scale
[11] = system: Ipomoea hederacea (IPOHE); experiment: as above; settings: 1000 g/ha unless otherwise stated, five-point scale
[12] = system: Amaranthus retoflexus (AMARE); experiment: as above; settings: 1000 g/ha unless otherwise stated, five-point scale

| SMILES | percentage damage to the plant, SETFA (Setaria faberi (SETFA) [1]) | percentage damage to the plant, ABUTH [2] | percentage damage to the plant, ZEAMX (Zea mays (ZEAMX) [3]) | Post-emergence Test ABUTH, percentage damage to the plant (five-point scale) [4] | Post-emergence Test ZEAMX, percentage damage to the plant (five-point scale) (Zea mays (ZEAMX) [5]) | Post-emergence Test SETFA, percentage damage to the plant (five-point scale) (Setaria faberi (SETFA) [6]) | Post-emergence Test ECHCG, percentage damage to the plant (five-point scale) [7] | Post-emergence Test IPOHE, percentage damage to the plant (five-point scale) [8] | Post-emergence Test AMARE, percentage damage to the plant (five-point scale) [9] | percentage damage to the plant, ECHCG [10] | percentage damage to the plant, IPOHE [11] | percentage damage to the plant, AMARE [12] |
| --- | --- | --- | --- | --- | --- | --- | --- | --- | --- | --- | --- | --- |
| CCn1c(C)c(-c2ccc(C(F)(F)F)nc2)c(=O)c(C(=O)O)c1-c1ccc(Cl)c(Cl)c1 [Compound 108, 2-(3,4-dichlorophenyl)-1-ethyl-6-methyl-4-oxo-5-[6-(trifluoromethyl)-3-pyridyl]pyridine-3-carboxylic acid] | 3 (3=41-60%) | 1 (1=0-20%) | 1 (1=0-20%) | 2 (2=21-40%) | 2 (2=21-40%) | 3 (3=41-60%) | 2 (2=21-40%) | 2 (2=21-40%) | 2 (2=21-40%) | 1 (1=0-20%) | 1 (1=0-20%) | 1 (1=0-20%) |
| CCn1c(C)c(-c2ccc(OC)c(OC)c2)c(=O)c(C(=O)O)c1-c1ccc(Cl)c(Cl)c1 [Compound 99, 2-(3,4-dichlorophenyl)-5-(3,4-dimethoxyphenyl)-1-ethyl-6-methyl-4-oxo-pyridine-3-carboxylic acid] | 4 (4=61-80%) | 2 (2=21-40%) | 2 (2=21-40%) | 3 (3=41-60%) | 2 (2=21-40%) | 4 (4=61-80%) | 4 (4=61-80%) | 2 (2=21-40%) | 3 (3=41-60%) | 3 (3=41-60%) | 1 (1=0-20%) | 2 (2=21-40%) |
| CCn1c(C)c(-c2cccc(OC)n2)c(=O)c(C(=O)O)c1-c1ccc(Cl)c(Cl)c1 [Compound 113, 2-(3,4-dichlorophenyl)-1-ethyl-5-(6-methoxy-2-pyridyl)-6-methyl-4-oxo-pyridine-3-carboxylic acid] | 4 (4=61-80%) | 3 (3=41-60%) | 2 (2=21-40%) | 4 (4=61-80%) | 2 (2=21-40%) | 4 (4=61-80%) | 3 (3=41-60%) | 2 (2=21-40%) | 3 (3=41-60%) | 1 (1=0-20%) | 2 (2=21-40%) | 1 (1=0-20%) |
| CCn1c(C)c(-c2cccc(C#N)c2)c(=O)c(C(=O)O)c1-c1ccc(Cl)c(Cl)n1 [Compound 147, 5-(3-cyanophenyl)-2-(5,6-dichloro-2-pyridyl)-1-ethyl-6-methyl-4-oxo-pyridine-3-carboxylic acid] | 0 | 0 | 0 | 2 (2=21-40%) | 2 (2=21-40%) | 2 (2=21-40%) | 2 (2=21-40%) | 2 (2=21-40%) | 0 | 0 | 0 | 0 |
| CCn1c(C)c(-c2cc(C)cc(C(F)(F)F)c2)c(=O)c(C(=O)O)c1-c1ccc(Cl)c(Cl)c1 [Compound 67, 2-(3,4-dichlorophenyl)-1-ethyl-6-methyl-5-[3-methyl-5-(trifluoromethyl)phenyl]-4-oxo-pyridine-3-carboxylic acid] | 1 (1=0-20%) | 1 (1=0-20%) | 1 (1=0-20%) | 2 (2=21-40%) | 1 (1=0-20%) | 1 (1=0-20%) | 1 (1=0-20%) | 1 (1=0-20%) | 1 (1=0-20%) | 1 (1=0-20%) | 1 (1=0-20%) | 1 (1=0-20%) |
